In brackets after ≈: the same amount, converted by molar mass. Activity calls are given as the source filed them. The rule behind the calls is not given here.
Legend:
[1] = Inhibition of metallo-beta-lactamase IMP-1 (unknown origin) using nitrocefin as substrate preincubated for 15 min followed by substrate addition and measured after 15 min by microplate reader assay; design: species or system Bacteria
Escherichia coli [2] = assay: Antibacterial activity against pET28a-NDM-1 positive Escherichia coli BL21(DE3) isolates assessed as florfenicol MIC incubated for 18 to 24 hrs by CLSI based broth microdilution method; type: functional; details: time 18-24 hrs
Escherichia coli [3] = assay: Antibacterial activity against NDM-1 positive Escherichia coli ZC-YN3 isolates assessed as lincomycin MIC incubated for 18 to 24 hrs by CLSI based broth microdilution method; type: functional; details: time 18-24 hrs
Bacteria [4] = tested on: Bacteria
Description: Binding affinity to NDM-1 V73A mutant (unknown origin) assessed as binding constant by fluorescence quenching method

Escherichia coli [5] = assay: Antibacterial activity against NDM-1 positive Escherichia coli ZC-YN3 isolates assessed as vancomycin MIC incubated for 18 to 24 hrs by CLSI based broth microdilution method; type: functional; details: time 18-24 hrs
Escherichia coli [6] = assay: Synergistic antibacterial activity against NDM-1 negative Escherichia coli ATCC25922 isolates assessed as fractional Inhibitory concentration index incubated for 18 to 24 hrs in presence of meropenem by CLSI based broth microdilution method; type: functional; details: time 18-24 hrs
Escherichia coli [7] = assay: Synergistic antibacterial activity against NDM-1 positive Escherichia coli ZC-YN3 isolates assessed as fractional Inhibitory concentration index incubated for 18 to 24 hrs in presence of lincomycin by CLSI based broth microdilution method; type: functional; details: time 18-24 hrs
Escherichia coli [8] = assay: Antibacterial activity against NDM-1 positive Escherichia coli ZC-YN3 isolates assessed as kanamycin MIC incubated for 18 to 24 hrs by CLSI based broth microdilution method; type: functional; details: time 18-24 hrs
Bacteria [9] = assay: Inhibition of NDM-1 H250A mutant activity (unknown origin) in presence of zinc ion
Escherichia coli [10] = assay: Antibacterial activity against pET28a-NDM-1 positive Escherichia coli BL21(DE3) isolates assessed as lincomycin MIC incubated for 18 to 24 hrs by CLSI based broth microdilution method; type: functional; details: time 18-24 hrs
Escherichia coli [11] = assay: Antibacterial activity against NDM-1 positive MCR1 carrying Escherichia coli ZJ487 isolates assessed as meropenem MIC incubated for 18 to 24 hrs by CLSI based broth microdilution method; type: functional; details: time 18-24 hrs
Escherichia coli [12] = assay: Synergistic antibacterial activity against pET28a NDM-1 positive Escherichia coli BL21(DE3) isolates assessed as fractional Inhibitory concentration index incubated for 18 to 24 hrs in presence of florfenicol by CLSI based broth microdilution method; type: functional; details: time 18-24 hrs
Escherichia coli [13] = assay: Antibacterial activity against NDM-1 positive Escherichia coli ZC-YN3 isolates assessed as ciprofloxacin MIC incubated for 18 to 24 hrs by CLSI based broth microdilution method; type: functional; details: time 18-24 hrs
Escherichia coli [14] = assay: Antibacterial activity against pET28a-NDM-1 positive Escherichia coli BL21(DE3) isolates assessed as spectinomycin MIC incubated for 18 to 24 hrs by CLSI based broth microdilution method; type: functional; details: time 18-24 hrs
Escherichia coli [15] = assay: Antibacterial activity against pET28a-NDM-1 positive Escherichia coli BL21(DE3) isolates assessed as ciprofloxacin MIC incubated for 18 to 24 hrs by CLSI based broth microdilution method; type: functional; details: time 18-24 hrs
Bacteria [16] = assay: Inhibition of NDM-1 activity (unknown origin) in presence of zinc ion
Escherichia coli [17] = assay: Synergistic antibacterial activity against pET28a NDM-1 positive Escherichia coli BL21(DE3) isolates assessed as fractional Inhibitory concentration index incubated for 18 to 24 hrs in presence of tetracycline by CLSI based broth microdilution method; type: functional; details: time 18-24 hrs
Escherichia coli [18] = assay: Antibacterial activity against NDM-1 negative Escherichia coli ATCC25922 isolates assessed as meropenem MIC incubated for 18 to 24 hrs by CLSI based broth microdilution method; type: functional; details: time 18-24 hrs
Escherichia coli [19] = assay: Synergistic antibacterial activity against NDM-1 positive MCR1 carrying Escherichia coli ZJ487 isolates assessed as fractional Inhibitory concentration index incubated for 18 to 24 hrs in presence of meropenem by CLSI based broth microdilution method; type: functional; details: time 18-24 hrs
[20] = Inhibition of metallo-beta-lactamase NDM-1 (unknown origin) using nitrocefin as substrate preincubated for 15 min followed by substrate addition and measured after 15 min by microplate reader assay; design: species or system Bacteria
Escherichia coli [21] = assay: Synergistic antibacterial activity against NDM-1 positive Escherichia coli ZC-YN3 isolates assessed as fractional Inhibitory concentration index incubated for 18 to 24 hrs in presence of tetracycline by CLSI based broth microdilution method; type: functional; details: time 18-24 hrs
Escherichia coli [22] = assay: Antibacterial activity against NDM-1 positive Escherichia coli ZC-YN3 isolates assessed as florfenicol MIC incubated for 18 to 24 hrs by CLSI based broth microdilution method; type: functional; details: time 18-24 hrs
Bacteria [23] = assay: Inhibition of NDM-1 V73A mutant activity (unknown origin) in presence of zinc ion
[24] = Inhibition of metallo-beta-lactamase NDM-9 (unknown origin) using nitrocefin as substrate preincubated for 15 min followed by substrate addition and measured after 15 min by microplate reader assay; design: species or system Bacteria
Bacteria [25] = tested on: Bacteria; remark: listed apart in the source
Description: Binding affinity to NDM-1 (unknown origin) assessed as binding constant by fluorescence quenching method

Escherichia coli [26] = assay: Synergistic antibacterial activity against NDM-1 positive Escherichia coli ZC-YN3 isolates assessed as fractional Inhibitory concentration index incubated for 18 to 24 hrs in presence of florfenicol by CLSI based broth microdilution method; type: functional; details: time 18-24 hrs
Escherichia coli [27] = assay: Bactericidal activity against pET28a-NDM-1 producing Escherichia coli BL21(DE3) at 32 ug/ml measured within 3 hrs in presence of meropenem by time kill curve assay; type: functional, organism-based; details: dose 32.0 µg/ml
Bacteria [28] = assay: Binding affinity to NDM-1 V73A mutant (unknown origin) assessed as binding free energy by fluorescence quenching method
Escherichia coli [29] = assay: Antibacterial activity against pET28a-NDM-1 positive Escherichia coli BL21(DE3) isolates assessed as doxycycline MIC incubated for 18 to 24 hrs by CLSI based broth microdilution method; type: functional; details: time 18-24 hrs
[30] = Inhibition of metallo-beta-lactamase VIM-1 (unknown origin) using nitrocefin as substrate preincubated for 15 min followed by substrate addition and measured after 15 min by microplate reader assay; design: species or system Bacteria
Escherichia coli [31] = assay: Synergistic antibacterial activity against pET28a NDM-1 positive Escherichia coli BL21(DE3) isolates assessed as fractional Inhibitory concentration index incubated for 18 to 24 hrs in presence of meropenem by CLSI based broth microdilution method; type: functional; details: time 18-24 hrs
Escherichia coli [32] = assay: Synergistic antibacterial activity against NDM-1 positive Escherichia coli ZC-YN3 isolates assessed as fractional Inhibitory concentration index incubated for 18 to 24 hrs in presence of rifampicin by CLSI based broth microdilution method; type: functional; details: time 18-24 hrs
Escherichia coli [33] = assay: Synergistic antibacterial activity against pET28a NDM-1 positive Escherichia coli BL21(DE3) isolates assessed as fractional Inhibitory concentration index incubated for 18 to 24 hrs in presence of imipenem by CLSI based broth microdilution method; type: functional; details: time 18-24 hrs
Escherichia coli [34] = assay: Antibacterial activity against NDM-1 positive Escherichia coli ZC-YN3 isolates assessed as tetracycline MIC incubated for 18 to 24 hrs by CLSI based broth microdilution method; type: functional; details: time 18-24 hrs
Escherichia coli [35] = assay: Synergistic antibacterial activity against pET28a NDM-1 positive Escherichia coli BL21(DE3) isolates assessed as fractional Inhibitory concentration index incubated for 18 to 24 hrs in presence of ciprofloxacin by CLSI based broth microdilution method; type: functional; details: time 18-24 hrs
Escherichia coli [36] = assay: Synergistic antibacterial activity against NDM-1 positive Escherichia coli ZC-YN3 isolates assessed as fractional Inhibitory concentration index incubated for 18 to 24 hrs in presence of cefotaxime by CLSI based broth microdilution method; type: functional; details: time 18-24 hrs

Structure (SMILES): O=c1c(O)c(-c2ccc(O)c(O)c2)oc2cc(O)ccc12 [FISETIN]
- IC50 [1]: 56.13 µg/mL (≈ 196 µM)
- MIC (Escherichia coli [2]): 683 µg/mL
- MIC (Escherichia coli [3]): 1020 µg/mL
- Ka (Bacteria [4]): 11.1 10^5L/mol
- MIC (Escherichia coli [5]): 427 µg/mL
- fractional inhibitory concentration index (FICI) (Escherichia coli [6]): 1.13
- fractional inhibitory concentration index (FICI) (Escherichia coli [7]): 1.13
- MIC (Escherichia coli [8]): 853 µg/mL
- inhibition (Bacteria [9]): Active
- MIC (Escherichia coli [10]): 853 µg/mL
- MIC (Escherichia coli [11]): 5.33 µg/mL
- fractional inhibitory concentration index (FICI) (Escherichia coli [12]): 0.79
- MIC (Escherichia coli [13]): 6.67 µg/mL
- MIC (Escherichia coli [14]): 512 µg/mL
- MIC (Escherichia coli [15]): 341 µg/mL
- inhibition (Bacteria [16]): Active
- fractional inhibitory concentration index (FICI) (Escherichia coli [17]): 0.96
- MIC (Escherichia coli [18]): 0.01 µg/mL
- fractional inhibitory concentration index (FICI) (Escherichia coli [19]): 0.38
- IC50 [20]: 9.66 µg/mL (≈ 33.7 µM)
- fractional inhibitory concentration index (FICI) (Escherichia coli [21]): 1.13
- MIC (Escherichia coli [22]): 341 µg/mL
- inhibition (Bacteria [23]): Active
- IC50 [24]: 25.98 µg/mL (≈ 90.8 µM)
- Ka (Bacteria [25]): 12.2 10^5L/mol
- fractional inhibitory concentration index (FICI) (Escherichia coli [26]): 0.96
- Activity (Escherichia coli [27]): Active
- Activity (Bacteria [28]): -18.7 kcal/mol
- MIC (Escherichia coli [29]): 107 µg/mL
- IC50 [30]: 11.37 µg/mL (≈ 39.7 µM)
- fractional inhibitory concentration index (FICI) (Escherichia coli [31]): 0.25
- fractional inhibitory concentration index (FICI) (Escherichia coli [32]): 0.96
- fractional inhibitory concentration index (FICI) (Escherichia coli [33]): 0.46
- MIC (Escherichia coli [34]): 128 µg/mL
- fractional inhibitory concentration index (FICI) (Escherichia coli [35]): 0.96
- fractional inhibitory concentration index (FICI) (Escherichia coli [36]): 1.13

— ChEMBL document CHEMBL5131475, “Metallo-β-lactamases inhibitor fisetin attenuates meropenem resistance in NDM-1-producing Escherichia coli” (Eur J Med Chem, 2022)
